Measured values from ChEMBL document CHEMBL1128660, “Synthesis and fungicidal activity of 2,2-bipyridine derivatives” (1995).

Tests used:
Assay type in all cases: functional
[1] = system: Botrytis cinerea; experiment: Fungicidal activity (under greenhouse conditions against Cucumber botrytis (Botrytis cinerea) at 200 ppm
[2] = system: Blumeria graminis; experiment: Fungicidal activity under greenhouse conditions against Wheat powdery mildew (Erisyphe graminis) at 200 ppm at 200 ppm
[3] = system: Phytophthora infestans; experiment: Fungicidal activity under greenhouse conditions against Tomato late blight (Phtyopthora infestans) at 200 ppm
[4] = system: Plasmopara viticola; experiment: The fungicidal activity (percent disease control) under greenhouse conditions against Grape downy mildew (Plasmopara viticola) at 200 ppm
[5] = system: Pyricularia grisea; experiment: Fungicidal activity under greenhouse conditions against Rice blast (Pyricularia oryzae) at 200 ppm
[6] = system: Oculimacula yallundae; experiment: Fungicidal activity under greenhouse conditions against Wheat foot rot (Pseudocercosporella herpotrichoides) at 200 ppm.
[7] = system: Puccinia recondita; experiment: Fungicidal activity under greenhouse conditions against Wheat leaf rust (Puccinia recondita) at 200 ppm
[8] = system: Parastagonospora nodorum; experiment: The fungicidal activity (percent disease control) under greenhouse conditions against Wheat septoria (Septoria nodorum) at 200 ppm
[9] = system: Thanatephorus cucumeris; experiment: Fungicidal activity under greenhouse conditions against Rice sheath blight (Rhizoctonia solani) at 200 ppm
[10] = system: Blumeria graminis; experiment: The fungicidal activity (percent disease control) under greenhouse conditions against Wheat powdery mildew (Erisyphe graminis) at 40 ppm; shows curative effect
[11] = system: Puccinia recondita; experiment: The fungicidal activity (percent disease control) under greenhouse conditions against Wheat leaf rust (Puccinia recondita) at 40 ppm
[12] = system: Parastagonospora nodorum; experiment: The fungicidal activity (percent disease control) under greenhouse conditions against Wheat septoria (Septoria nodorum) at 40 ppm; shows curative effect
[13] = system: Blumeria graminis; experiment: The fungicidal activity (percent disease control) under greenhouse conditions against Wheat powdery mildew (Erisyphe graminis) at 200 ppm at 200 ppm; shows curative effect
[14] = system: Oculimacula yallundae; experiment: The fungicidal activity (percent disease control) under greenhouse conditions against Wheat foot rot (Pseudocercosporella herpotrichoides) at 40 ppm
[15] = system: Parastagonospora nodorum; experiment: The fungicidal activity (percent disease control) under greenhouse conditions against Wheat septoria (Septoria nodorum) at 40 ppm
[16] = system: Puccinia recondita; experiment: The fungicidal activity (percent disease control) under greenhouse conditions against Wheat leaf rust (Puccinia recondita) at 200 ppm; shows curative effect
[17] = system: Parastagonospora nodorum; experiment: The fungicidal activity (percent disease control) under greenhouse conditions against Wheat septoria (Septoria nodorum) at 200 ppm; shows curative effect
[18] = system: Plasmopara viticola; experiment: The fungicidal activity (percent disease control) under greenhouse conditions against Grape downy mildew (Plasmopara viticola) at 40 ppm
[19] = system: Botrytis cinerea; experiment: The fungicidal activity (percent disease control) under greenhouse conditions against Cucumber botrytis (Botrytis cinerea) at 40 ppm
[20] = system: Blumeria graminis; experiment: The fungicidal activity (percent disease control) under greenhouse conditions against Wheat powdery mildew (Erisyphe graminis) at 40 ppm […]
[21] = system: Pyricularia grisea; experiment: The fungicidal activity (percent disease control) under greenhouse conditions against Rice blast (Pyricularia oryzae) at 200 ppm; shows curative effect
[22] = system: Puccinia recondita; experiment: The fungicidal activity (percent disease control) under greenhouse conditions against Wheat leaf rust (Puccinia recondita) at 40 ppm; shows curative effect

| Structure (SMILES) | Disease control [1] [%] | Disease control [2] [%] | Disease control [3] [%] | Disease control [5] [%] | Disease control [6] [%] | Disease control [7] [%] | Disease control [8] [%] | Disease control [9] [%] | Disease control [12] [%] | Disease control [13] [%] | also measured |
| --- | --- | --- | --- | --- | --- | --- | --- | --- | --- | --- | --- |
| Cc1ccc(-c2ccccn2)nc1 | 0 | 24 | 0 | 0 | 0 | 0 | 0 | 0 | – | – | Disease control [4]: 0% |
| CC(C)c1ccnc(-c2cc(C(C)C)ccn2)c1 | 0 | 38 | 0 | 67 | 12 | – | – | 73 | – | – | – |
| COc1ccccc1-c1ccnc(-c2cc(C)ccn2)c1 | 0 | – | 0 | 53 | 86 | – | – | 81 | 12 | – | Disease control [10]: 30%; Disease control [11]: 19% |
| CCCCCc1ccnc(-c2cc(CCCCC)ccn2)c1 | 0 | 92 | 0 | 27 | 0 | 90 | – | 93 | – | – | – |
| O=[N+]([O-])c1ccccc1-c1ccnc(-c2ccccn2)c1 | 41 | 0 | 24 | 32 | 0 | 67 | – | 0 | 76 | – | – |
| Brc1ccc(-c2ccc(-c3ccccn3)nc2)cc1 | 0 | – | 0 | 0 | 0 | 20 | – | 0 | 58 | 19 | – |
| Fc1ccc(-c2ccc(-c3ccccn3)nc2)cc1 | 0 | – | 24 | 32 | – | 64 | – | 100 | 32 | 55 | Disease control [14]: 27% |
| COc1ccccc1-c1ccnc(-c2ccccn2)c1 | 0 | – | 24 | 32 | 0 | 85 | – | 0 | – | 93 | Disease control [15]: 27% |
| Cc1ccc(-c2ccc(-c3ccccn3)nc2)cc1 | 59 | – | 0 | 32 | 0 | – | – | 0 | – | 99 | Disease control [16]: 84%; Disease control [17]: 95% |
| COc1ccc(-c2ccc(-c3ccccn3)nc2)cc1 | 0 | 92 | 0 | 97 | 75 | 93 | 40 | 19 | – | – | Disease control [18]: 65% |
| c1ccc(OCc2ccc(-c3ccccn3)nc2)cc1 | 0 | 11 | 0 | 0 | 0 | 0 | 0 | 0 | – | – | – |
| Clc1ccc(-c2ccc(-c3ccccn3)nc2)cc1 | 0 | – | 0 | 97 | 81 | 65 | 98 | 100 | – | 99 | Disease control [18]: 50% |
| Cc1ccnc(-c2ccc(-c3ccccc3)cn2)c1 | – | – | 0 | 32 | 69 | 93 | – | 0 | 96 | – | Disease control [19]: 28%; Disease control [20]: 47% |
| c1ccc(-c2ccc(-c3ccccn3)nc2)cc1 | 45 | – | 23 | – | 0 | – | 100 | 0 | – | 100 | Disease control [4]: 96%; Disease control [21]: 87%; Disease control [22]: 60% |
| CCCCc1ccnc(-c2cc(CCCC)ccn2)c1 | 0 | 21 | 0 | 85 | 44 | 33 | – | 93 | – | – | – |
| O=[N+]([O-])c1ccc(-c2ccc(-c3ccccn3)nc2)cc1 | 0 | 0 | 0 | 0 | 0 | 0 | 0 | 0 | – | – | Disease control [4]: 60% |
| c1ccc(-c2ccnc(-c3ccccn3)c2)cc1 | 0 | – | 0 | 74 | 0 | – | – | 0 | 94 | 95 | Disease control [4]: 96%; Disease control [22]: 11% |
| Cc1ccnc(-c2cc(-c3ccccc3)ccn2)c1 | 30 | 99 | 0 | 53 | 66 | 99 | – | 81 | 19 | – | – |
| CCCCCCCCCCCCc1ccnc(-c2cc(CCCCCCCCCCCC)ccn2)c1 | 0 | 0 | 0 | 0 | 0 | – | – | 0 | – | – | – |
